According to ChEMBL document CHEMBL1128556, “New spiropiperidines as potent and selective non-peptide tachykinin NK2 receptor antagonists” (J Med Chem, 1995):

How the values were obtained:
[1] = target: T1, Substance-K receptor (Rattus norvegicus, UniProt P16610); assay: Binding affinity against tachykinin receptor 2 from rat colon.
T1 sequence (P16610 whole entry): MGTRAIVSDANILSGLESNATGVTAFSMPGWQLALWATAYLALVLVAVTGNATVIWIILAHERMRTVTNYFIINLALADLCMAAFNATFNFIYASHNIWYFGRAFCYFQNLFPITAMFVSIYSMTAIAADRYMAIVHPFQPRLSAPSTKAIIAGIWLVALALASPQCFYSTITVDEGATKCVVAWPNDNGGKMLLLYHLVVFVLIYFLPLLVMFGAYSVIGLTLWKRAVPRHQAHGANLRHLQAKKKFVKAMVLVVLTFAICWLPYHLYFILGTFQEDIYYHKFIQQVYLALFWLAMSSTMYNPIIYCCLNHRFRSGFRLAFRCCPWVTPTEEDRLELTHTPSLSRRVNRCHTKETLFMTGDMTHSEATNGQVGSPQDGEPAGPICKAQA

[2] = target: T2, Substance-K receptor (Cavia porcellus, UniProt Q64077); assay: The compound was tested for binding affinity against Tachykinin receptor 2 from guinea pig trachea
T2 sequence (Q64077 whole entry): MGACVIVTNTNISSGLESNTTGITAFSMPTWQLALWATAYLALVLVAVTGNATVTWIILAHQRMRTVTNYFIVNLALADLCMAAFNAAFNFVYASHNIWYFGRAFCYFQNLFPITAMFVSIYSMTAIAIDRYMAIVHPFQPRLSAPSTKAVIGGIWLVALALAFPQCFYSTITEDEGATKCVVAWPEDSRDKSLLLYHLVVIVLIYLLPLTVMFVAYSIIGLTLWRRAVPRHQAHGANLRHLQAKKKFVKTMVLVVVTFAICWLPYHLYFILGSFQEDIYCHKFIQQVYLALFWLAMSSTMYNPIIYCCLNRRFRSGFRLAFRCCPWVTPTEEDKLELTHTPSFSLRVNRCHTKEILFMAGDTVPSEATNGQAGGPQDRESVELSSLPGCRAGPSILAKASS

[3] = target: T3, Neuromedin-K receptor (Cavia porcellus, UniProt P30098); assay: The compound was tested for binding affinity against Tachykinin receptor 3 from guinea pig cerebral cortex; type: tissue-based
T3 sequence (P30098 whole entry): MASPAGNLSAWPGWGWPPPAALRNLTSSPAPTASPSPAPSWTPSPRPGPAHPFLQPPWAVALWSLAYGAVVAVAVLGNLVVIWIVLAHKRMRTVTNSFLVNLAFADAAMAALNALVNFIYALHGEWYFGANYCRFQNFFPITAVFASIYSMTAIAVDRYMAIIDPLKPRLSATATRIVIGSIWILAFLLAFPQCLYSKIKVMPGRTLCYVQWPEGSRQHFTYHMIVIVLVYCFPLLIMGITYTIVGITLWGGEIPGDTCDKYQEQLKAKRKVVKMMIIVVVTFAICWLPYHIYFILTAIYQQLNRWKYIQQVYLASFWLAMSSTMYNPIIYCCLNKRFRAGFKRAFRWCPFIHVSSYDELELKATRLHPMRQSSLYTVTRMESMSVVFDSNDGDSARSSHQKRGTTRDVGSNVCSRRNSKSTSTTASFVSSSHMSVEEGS

[4] = target: Substance-P receptor (Cavia porcellus, UniProt P30547); assay: The compound was tested for binding affinity against Tachykinin receptor 1 from guinea pig trachea
Substance-P receptor, sequence (P30547 whole entry): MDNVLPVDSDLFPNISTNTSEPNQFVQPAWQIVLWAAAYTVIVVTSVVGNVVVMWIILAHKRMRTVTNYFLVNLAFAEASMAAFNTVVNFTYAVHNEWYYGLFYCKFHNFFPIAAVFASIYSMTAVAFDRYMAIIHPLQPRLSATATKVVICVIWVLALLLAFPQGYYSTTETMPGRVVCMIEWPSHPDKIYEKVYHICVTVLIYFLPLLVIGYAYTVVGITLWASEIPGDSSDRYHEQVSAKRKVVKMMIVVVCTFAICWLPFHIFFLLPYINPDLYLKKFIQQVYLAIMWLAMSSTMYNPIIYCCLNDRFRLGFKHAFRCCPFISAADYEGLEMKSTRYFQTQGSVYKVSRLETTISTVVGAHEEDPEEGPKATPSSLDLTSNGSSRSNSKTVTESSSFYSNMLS

[5] = target: T4, Substance-K receptor (Homo sapiens, UniProt P21452); assay: The compound was tested for binding affinity against Tachykinin receptor 2 from human expressed in CHO cells; type: cell-based
T4 sequence (P21452 whole entry): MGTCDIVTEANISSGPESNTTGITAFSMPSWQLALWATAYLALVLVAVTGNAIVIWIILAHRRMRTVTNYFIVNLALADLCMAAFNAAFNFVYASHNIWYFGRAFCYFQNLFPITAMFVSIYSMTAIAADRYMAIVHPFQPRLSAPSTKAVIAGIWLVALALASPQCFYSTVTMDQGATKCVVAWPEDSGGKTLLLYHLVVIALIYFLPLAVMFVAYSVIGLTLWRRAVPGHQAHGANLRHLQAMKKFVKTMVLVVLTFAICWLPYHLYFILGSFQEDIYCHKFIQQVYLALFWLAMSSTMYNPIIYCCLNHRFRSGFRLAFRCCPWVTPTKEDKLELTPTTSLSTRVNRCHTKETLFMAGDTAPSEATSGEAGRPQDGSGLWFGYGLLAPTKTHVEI

Q: With `O=C1OC2(CCN(CCc3c[nH]c4ccc(F)cc34)CC2)CN1Cc1ccc(F)cc1F` as the compound, how does the Ki [1] read?
A: 0.00631 µM

Q: With `O=C1OC2(CCN(CCc3c[nH]c4ccc(F)cc34)CC2)CN1Cc1ccc(F)cc1` as the compound, how does the Ki [1] read?
A: 0.00398 µM

Q: With `O=C1OC2(CCN(CCc3c[nH]c4ccc(F)cc34)CC2)CN1C(c1ccccc1)c1ccccc1` as the compound, how does the Ki [1] read?
A: 0.02 µM

Q: For `COc1ccc(CN2CC3(CCN(CCc4c[nH]c5ccc(F)cc45)CC3)OC2=O)cc1`, which Ki [1] is on record?
A: 0.00398 µM

Q: Which results are given for `O=C1OC2(CCN(CCc3c[nH]c4ccc(F)cc34)CC2)CN1Cc1ccccc1`?
A: Ki [2]: 0.00251 µM; Ki [3]: 79.4 µM; Ki [4]: > 10 µM; Ki [1]: 0.00126 µM; Ki [5]: 0.00794 µM

Q: With `CC(c1ccccc1)N1CC2(CCN(CCc3c[nH]c4ccc(F)cc34)CC2)OC1=O` (configuration not stated) as the compound, how does the Ki [1] read?
A: 0.02 µM

Q: For `O=C1OC2(CCN(CCc3c[nH]c4ccc(F)cc34)CC2)CN1C(=O)c1ccccc1`, which Ki [1] is on record?
A: 0.00251 µM

Q: `Cc1ccccc1CN1CC2(CCN(CCc3c[nH]c4ccc(F)cc34)CC2)OC1=O` was tested. Which Ki [1] did it give?
A: 0.0126 µM

Q: `CC(=O)N(Cc1ccccc1)CC1(O)CCN(CCc2c[nH]c3ccc(F)cc23)CC1` was tested. Which Ki [1] did it give?
A: 0.00158 µM

Q: Which Ki [1] does the source give for `O=C1OC2(CCN(CCc3c[nH]c4ccc(F)cc34)CC2)CN1Cc1cccc(F)c1` here?
A: 0.00158 µM

Q: Which Ki [1] does the source give for `Cc1ccc(S(=O)(=O)N2CC3(CCN(CCc4c[nH]c5ccc(F)cc45)CC3)OC2=O)cc1` here?
A: 0.00501 µM

Q: For `Cc1ccc(CN2CC3(CCN(CCc4c[nH]c5ccc(F)cc45)CC3)OC2=O)cc1`, which Ki [1] is on record?
A: 0.001 µM

Q: `O=C1OC2(CCN(CCc3c[nH]c4ccc(F)cc34)CC2)CN1Cc1cccnc1` was tested. Which Ki [1] did it give?
A: 0.2 µM

Q: How did the Ki [1] turn out when `Fc1ccc2[nH]cc(CCN3CCC4(CC3)CCN(Cc3ccccc3)C4)c2c1` was run?
A: 0.00631 µM

Q: `O=C1OC2(CCN(CCc3c[nH]c4ccc(F)cc34)CC2)CN1Cc1ccc(Cl)cc1` was tested. Which Ki [1] did it give?
A: 0.01 µM

Q: `COC(=O)c1cccc(CN2CC3(CCN(CCc4c[nH]c5ccc(F)cc45)CC3)OC2=O)c1` was tested. Which Ki [1] did it give?
A: 0.0794 µM

Q: With `O=C1OC2(CCN(CCc3c[nH]c4ccc(F)cc34)CC2)CN1Cc1ccc2ccccc2c1` as the compound, how does the Ki [1] read?
A: 0.02 µM

Q: For `O=C1NC2(CCN(CCc3c[nH]c4ccc(F)cc34)CC2)CN1Cc1ccccc1`, which Ki [1] is on record?
A: 0.00126 µM

Q: With `O=C1OC2(CCN(CCc3c[nH]c4ccc(F)cc34)CC2)CN1Cc1cccc2ccccc12` as the compound, how does the Ki [1] read?
A: 0.00794 µM

Q: With `O=C1OC2(CCN(CCc3c[nH]c4ccc(F)cc34)CC2)CN1Cc1ccncc1` as the compound, how does the Ki [1] read?
A: 0.1 µM

Q: How did the Ki [1] turn out when `CN1CC2(CCN(CCc3c[nH]c4ccc(F)cc34)CC2)OC1=O` was run?
A: 1.58 µM

Q: How did the Ki [1] turn out when `N#Cc1ccc(CN2CC3(CCN(CCc4c[nH]c5ccc(F)cc45)CC3)OC2=O)cc1` was run?
A: 0.1 µM

Q: How did the Ki [1] turn out when `O=C1OC2(CCN(CCc3c[nH]c4ccc(F)cc34)CC2)CN1CCc1ccccc1` was run?
A: 0.01 µM

Q: `O=C1CC2(CCN(CCc3c[nH]c4ccc(F)cc34)CC2)CN1Cc1ccccc1` was tested. Which Ki [1] did it give?
A: 0.00126 µM

Q: `O=C1OC2(CCN(CCc3c[nH]c4ccc(F)cc34)CC2)CN1Cc1ccccn1` was tested. Which Ki [1] did it give?
A: 0.0158 µM

Q: `O=C1NC2(CCN(CCc3c[nH]c4ccc(F)cc34)CC2)C(=O)N1Cc1ccccc1` was tested. Which Ki [1] did it give?
A: 0.126 µM

Q: Which Ki [1] does the source give for `OC1(CNCc2ccccc2)CCN(CCc2c[nH]c3ccc(F)cc23)CC1` here?
A: 0.1 µM

Q: `O=C1CC2(CCN(CCc3c[nH]c4ccc(F)cc34)CC2)NN1Cc1ccccc1` was tested. Which Ki [1] did it give?
A: 0.01 µM
